According to patent US9757327B2, “Abutilon indicum extracts and methods of use” (Avon Products, Inc., priority 2013, dated 2017):

Tested on: dorsal forearm skin of healthy female Caucasian subjects
Experiment: In vivo biopsy (histology after 3 week patch treatment)
Set-up: species or system human
Conditions: 3 weeks semi-occlusion patch, 2 mg/cm^2, extract 0.33% active, retinol 0.05% active
Experimental: Healthy female Caucasian subjects aged 30-65, with skin type II or III and mild to moderate photo damage, were treated on the dorsal forearm for 3 weeks (3 consecutive rounds of 5×24 hour) under semi-occlusion patches. Test articles including active ingredients, vehicle controls, and retinol were applied in a randomized allocation on 6 sites on each forearm. The application dose was 2 mg/cm^2. After 3 week treatment, a 2 mm punch biopsy was obtained from each treatment site and fixed in 10% buffered formalin. Tissue samples then embedded in paraffin, sectioned (5 μm thickness), and stained for skin markers after re-hydration. […] Retinol at a active concentration of 0.05% was used as a positive control. Retinol use at a 0.05% active concentration in the semi-occlusion patch vehicle formulation yielded a visual score of approximately 0.56 out of a 4 point scale in HE staining (measuring hematoxylin and eosin staining, an indication of viable epidermal thickness and health) with 63.6% of the subjects showing an improvement; a visual score of 0.6 out of a 4 point scale in M-TC staining (Masson's trichrome staining, assessing total mature fiber-forming collagen in the dermis—mainly Collagen I, […] and Collagen V) with 51.6% of the subjects showing an improvement; a visual score of 0.52 out of a 4 point scale for pro-Col (measuring new synthesis of Collagen I by skin fibroblasts in the dermis) with 51.6% of the subjects showing an improvement; and a visual score of 0.57 out of a 4 point scale for HA (measuring level of hyaluronic acid in both dermis and epidermis) with 50% of the subjects showing an improvement.

CC1=C(/C=C/C(C)=C/C=C/C(C)=C/CO)C(C)(C)CCC1 [Retinol]
subjects showing an improvement, HA: 50 % of the subjects | subjects showing an improvement, HE staining: 63.6 % of the subjects | subjects showing an improvement, M-TC staining: 51.6 % of the subjects | subjects showing an improvement, pro-Col: 51.6 % of the subjects | visual score for HA (hyaluronic acid in dermis and epidermis) (out of a 4 point scale): 0.57 | visual score for pro-Col (new synthesis of Collagen I) (out of a 4 point scale): 0.52 | visual score in HE staining (viable epidermal thickness and health) (out of a 4 point scale): approximately 0.56 | visual score in M-TC staining (total mature fiber-forming collagen in the dermis) (out of a 4 point scale): 0.6
